Source: patent US8658226B2, “Agent having anti-Helicobacter pylori activity” (Japan Royal Jelly Co., Ltd., priority 2008, dated 2014)
Values after ≈ are worked out from the molar mass of the structure shown.

Tested on: Helicobacter pylori
Assay: Measurement of anti-Helicobacter pylori activity by the paper disk method
Format: cell-based
Experimental: Measurement of anti-Helicobacter pylori activity was carried out by the paper disk method using Helicobacter pylori agar culture medium (Pore […] Chemical). After coating Helicobacter pylori over the entire surface of this medium, a thick circular piece of filter paper (Advantec) having a diameter of 8 mm impermeated with 60 μl of extract was placed on the medium followed by culturing in the presence of 10% carbon dioxide gas. After culturing for 3 to 4 days, the size of the zone of inhibition of Helicobacter pylori growth formed around the filter paper was observed. A piece of filter paper impermeated with chloramphenicol (CM, 100 μg/ml) was also placed on the medium as a positive control, while a piece of filter paper impermeated with PBS was placed on the medium as a negative control.

MIC (Helicobacter pylori, assumed from paper disk method, read-out: minimum inhibitory concentration (MIC)): ~5 µg/mL (≈ 15.5 µM)
Compound: O=C(N[C@H](CO)[C@H](O)c1ccc([N+](=O)[O-])cc1)C(Cl)Cl [chloramphenicol]
antibacterial activity of chloramphenicol (at a concentration of 5 μg/ml): essentially no longer observed
